Assays:
mice (formalin test) = experiment: formalin test in mice, oral administration; assay type: in vivo
human TRPV1 [1] = molecular target: T1, human TRPV1 (Homo sapiens, UniProt Q8NER1); experiment: hTRPV1 antagonism of capsaicin; assay type: cell-based; conditions: for fold less potent than 12, CAP antagonism: compared with 2-pentyloxy derivative 12; for fold less potent than 11, CAP antagonism: compared with 2-butoxy derivative 11
human TRPV1 [2] = molecular target: T1, human TRPV1; experiment: hTRPV1 antagonism of pH activation, FLIPR; assay type: cell-based; conditions: compound 1 vs lead 2

T1 sequence (Q8NER1 whole entry): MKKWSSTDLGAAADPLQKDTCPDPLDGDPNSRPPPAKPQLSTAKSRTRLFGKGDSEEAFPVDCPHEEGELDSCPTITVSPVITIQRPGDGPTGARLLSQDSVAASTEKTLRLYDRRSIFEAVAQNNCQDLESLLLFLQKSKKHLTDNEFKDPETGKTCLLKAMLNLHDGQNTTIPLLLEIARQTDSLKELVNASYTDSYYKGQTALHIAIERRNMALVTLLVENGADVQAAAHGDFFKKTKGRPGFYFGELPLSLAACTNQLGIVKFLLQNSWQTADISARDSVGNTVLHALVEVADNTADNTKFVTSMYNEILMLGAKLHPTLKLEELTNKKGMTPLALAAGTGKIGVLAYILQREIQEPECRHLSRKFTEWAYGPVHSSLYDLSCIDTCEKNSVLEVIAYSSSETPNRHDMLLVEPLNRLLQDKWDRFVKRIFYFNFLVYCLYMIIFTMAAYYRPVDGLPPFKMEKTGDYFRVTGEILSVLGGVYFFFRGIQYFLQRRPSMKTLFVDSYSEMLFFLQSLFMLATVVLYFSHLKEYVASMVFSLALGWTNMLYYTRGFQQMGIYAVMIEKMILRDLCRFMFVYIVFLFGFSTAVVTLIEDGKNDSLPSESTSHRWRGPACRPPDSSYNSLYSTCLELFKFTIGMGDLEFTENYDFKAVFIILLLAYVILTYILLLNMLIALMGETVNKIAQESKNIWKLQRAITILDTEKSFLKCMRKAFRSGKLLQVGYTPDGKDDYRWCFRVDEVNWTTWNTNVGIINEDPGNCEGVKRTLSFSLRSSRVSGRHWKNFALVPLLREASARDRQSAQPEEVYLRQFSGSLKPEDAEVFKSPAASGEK

CC(C(=O)NCc1ccc(C(F)(F)F)nc1OCc1ccccc1)c1ccc(NS(C)(=O)=O)c(F)c1 (stereo not shown) [Compound 53, N-((2-Benzyloxy-6-(trifluoromethyl)pyridin-3-yl)methyl)-(3-fluoro-4-(methylsulfonamido)phenyl)propanamide]
analgesic activity in the formalin test (mice (formalin test)): strong analgesic activity

COCCCOc1nc(C(F)(F)F)ccc1CNC(=O)C(C)c1ccc(NS(C)(=O)=O)c(F)c1 (stereo not shown) [Compound 18, N-((2-(3-Methoxypropoxy)-6-(trifluoromethyl)pyridin-3-yl)methyl)-2-(3-fluoro-4-(methylsulfonamido)phenyl)propanamide]
fold less potent than 12, CAP antagonism (human TRPV1 [1]): 22 fold

CCOCCOc1nc(C(F)(F)F)ccc1CNC(=O)C(C)c1ccc(NS(C)(=O)=O)c(F)c1 (stereo not shown) [Compound 17, N-((2-(2-Ethoxyethoxy)-6-(trifluoromethyl)pyridin-3-yl)methyl)-2-(3-fluoro-4-(methylsulfonamido)phenyl)propanamide]
fold less potent than 12, CAP antagonism (human TRPV1 [1]): 70 fold

CC/C=C\COc1nc(C(F)(F)F)ccc1CNC(=O)C(C)c1ccc(NS(C)(=O)=O)c(F)c1 (stereo not shown) [Compound 15, (Z)-N-((2-(Pent-2-en-1-yloxy)-6-(trifluoromethyl)pyridin-3-yl)methyl)-2-(3-fluoro-4-(methylsulfonamido)phenyl)propanamide]
fold less potent than 12, CAP antagonism (human TRPV1 [1]): ~1.5 fold

COCCOc1nc(C(F)(F)F)ccc1CNC(=O)C(C)c1ccc(NS(C)(=O)=O)c(F)c1 (stereo not shown) [Compound 16, N-((2-(2-Methoxyethoxy)-6-(trifluoromethyl)pyridin-3-yl)methyl)-2-(3-fluoro-4-(methylsulfonamido)phenyl)propanamide]
fold less potent than 11, CAP antagonism (human TRPV1 [1]): 160 fold

C/C=C\COc1nc(C(F)(F)F)ccc1CNC(=O)C(C)c1ccc(NS(C)(=O)=O)c(F)c1 (stereo not shown) [Compound 14, (Z)-N-((2-(But-2-en-1-yloxy)-6-(trifluoromethyl)pyridin-3-yl)methyl)-2-(3-fluoro-4-(methylsulfonamido)phenyl)propanamide]
fold less potent than 11, CAP antagonism (human TRPV1 [1]): ca. 5 fold

CC(C)COc1nc(C(F)(F)F)ccc1CNC(=O)C(C)c1ccc(NS(C)(=O)=O)c(F)c1 (stereo not shown) [Compound 22, N-((2-Isobutoxy-6-(trifluoromethyl)pyridin-3-yl)methyl)-2-(3-fluoro-4-(methylsulfonamido)phenyl)propanamide]
analgesic activity in the formalin test (mice (formalin test)): strong analgesic activity

CC1CCN(c2nc(C(F)(F)F)ccc2CNC(=O)C(C)c2ccc(NS(C)(=O)=O)c(F)c2)CC1 (stereo not shown) [Compound 1, reference compound]
fold better than precedent lead 2, CAP antagonism (human TRPV1 [1]; compound 1 vs lead 2): 150 fold | fold better than precedent lead 2, pH antagonism (human TRPV1 [2]): 230 fold

CCOCCCOc1nc(C(F)(F)F)ccc1CNC(=O)C(C)c1ccc(NS(C)(=O)=O)c(F)c1 (stereo not shown) [Compound 19, N-((2-(3-Ethoxypropoxy)-6-(trifluoromethyl)pyridin-3-yl)methyl)-2-(3-fluoro-4-(methylsulfonamido)phenyl)propanamide]
fold less potent than 13, CAP antagonism (human TRPV1 [1]; compared with 2-hexyloxy derivative 13): 20 fold

Source: PMC6959545 (European journal of medicinal chemistry, 2013)
